Values joined by “and” are separate entries in the source; they are usually repeats but may differ in a detail not shown here. Equal entries are not always repeated.
Assays:
Assay in all cases: CYP51 reconstitution assay
Format in all cases: biochemical
CaCYP51 Y132F = target: T1, CaCYP51 Y132F (Candida albicans, UniProt P10613, Y132F)
T1 construct: made in house; host or cells: E. coli DH5α (pCWori+)
Procedure: (§1) Azole antifungal agents were added in 2.5 μl dimethyl sulfoxide, followed by 10 min of incubation at 37°C prior to assay initiation with 4 mM β-NADPH-Na4. The samples were then shaken for 15 min at 37°C. Sterol metabolites were recovered by extraction with ethyl acetate, followed by derivatization with 0.1 ml N,O-bis(trimethylsilyl)trifluoroacetamide (BSTFA)–trimethylchlorosilane (TMCS) (99:1) and 0.3 ml anhydrous pyridine (2 h at 80°C), prior to analysis by gas chromatography-mass spectrometry (GC-MS) ([52]). IC50 determinations were performed in duplicate.

CaCYP51 S279F = target: T2, CaCYP51 S279F (Candida albicans, UniProt P10613, S279F)
T2 construct: made in house; host or cells: E. coli DH5α (pCWori+)
Procedure: as §1

CaCYP51 G448E = target: T3, CaCYP51 G448E (Candida albicans, UniProt P10613, G448E)
T3 construct: made in house; host or cells: E. coli DH5α (pCWori+)
T3 sequence (P10613 whole entry, looked up, stated change not applied): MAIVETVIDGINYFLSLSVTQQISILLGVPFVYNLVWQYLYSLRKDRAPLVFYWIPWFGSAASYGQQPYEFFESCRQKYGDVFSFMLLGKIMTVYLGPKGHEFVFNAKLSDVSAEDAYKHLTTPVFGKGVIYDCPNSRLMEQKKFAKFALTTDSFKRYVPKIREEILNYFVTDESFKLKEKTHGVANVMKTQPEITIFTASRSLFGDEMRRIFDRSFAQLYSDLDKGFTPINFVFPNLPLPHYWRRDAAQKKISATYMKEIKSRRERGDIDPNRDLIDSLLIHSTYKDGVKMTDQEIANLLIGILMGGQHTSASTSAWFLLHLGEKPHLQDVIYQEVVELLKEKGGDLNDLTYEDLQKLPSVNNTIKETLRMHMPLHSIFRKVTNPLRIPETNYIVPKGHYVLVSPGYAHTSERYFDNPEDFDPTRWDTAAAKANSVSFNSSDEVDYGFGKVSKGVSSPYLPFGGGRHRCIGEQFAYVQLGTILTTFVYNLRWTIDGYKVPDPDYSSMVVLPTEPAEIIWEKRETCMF
Procedure: as §1

CaCYP51 D278N+G464S = target: T4, CaCYP51 D278N+G464S (Candida albicans, UniProt P10613, D278N/G464S)
T4 construct: made in house; host or cells: E. coli DH5α (pCWori+)
T4 sequence (P10613 whole entry, looked up, stated change not applied): as above
Procedure: as §1

CaCYP51 V437I = target: T5, CaCYP51 V437I (Candida albicans, UniProt P10613, V437I)
T5 construct: made in house; host or cells: E. coli DH5α (pCWori+)
Procedure: as §1

CaCYP51 Y447H = target: T6, CaCYP51 Y447H (Candida albicans, UniProt P10613, Y447H)
T6 construct: made in house; host or cells: E. coli DH5α (pCWori+)
T6 sequence (P10613 whole entry, looked up, stated change not applied): as above
Procedure: as §1

CaCYP51 F449Y = target: T7, CaCYP51 F449Y (Candida albicans, UniProt P10613, F449Y)
T7 construct: made in house; host or cells: E. coli DH5α (pCWori+)
Procedure: as §1

CaCYP51 S405F = target: T8, CaCYP51 S405F (Candida albicans, UniProt P10613, S405F)
T8 construct: made in house; host or cells: E. coli DH5α (pCWori+)
Procedure: as §1

CaCYP51 Y118A = target: T9, CaCYP51 Y118A (Candida albicans, UniProt P10613, Y118A); conditions: mean ± SD, duplicate
T9 construct: made in house; host or cells: E. coli DH5α (pCWori+)
Procedure: as §1

CaCYP51 P230L = target: T10, CaCYP51 P230L (Candida albicans, UniProt P10613, P230L)
T10 construct: made in house; host or cells: E. coli DH5α (pCWori+)
T10 sequence (P10613 whole entry, looked up, stated change not applied): as above
Procedure: as §1

CaCYP51 F145L = target: T11, CaCYP51 F145L (Candida albicans, UniProt P10613, F145L)
T11 construct: made in house; host or cells: E. coli DH5α (pCWori+)
Procedure: as §1

CaCYP51 G464S = target: T12, CaCYP51 G464S (Candida albicans, UniProt P10613, G464S)
T12 construct: made in house; host or cells: E. coli DH5α (pCWori+)
Procedure: as §1

CaCYP51 Wild type = target: T13, CaCYP51 Wild type (Candida albicans, UniProt P10613)
T13 construct: made in house; host or cells: E. coli DH5α (pCWori+)
Procedure: as §1

CaCYP51 Y132H+K143R = target: T14, CaCYP51 Y132H+K143R (Candida albicans, UniProt P10613, K143R/Y132H)
T14 construct: made in house; host or cells: E. coli DH5α (pCWori+)
T14 sequence (P10613 whole entry, looked up, stated change not applied): as above
Procedure: as §1

CaCYP51 F126V = target: T15, CaCYP51 F126V (Candida albicans, UniProt P10613, F126V)
T15 construct: made in house; host or cells: E. coli DH5α (pCWori+)
Procedure: as §1

CaCYP51 R467K = target: T16, CaCYP51 R467K (Candida albicans, UniProt P10613, R467K)
T16 construct: made in house; host or cells: E. coli DH5α (pCWori+)
Procedure: as §1

CaCYP51 Y132H = target: T17, CaCYP51 Y132H (Candida albicans, UniProt P10613, Y132H)
T17 construct: made in house; host or cells: E. coli DH5α (pCWori+)
Procedure: as §1

CaCYP51 Y257H = target: T18, CaCYP51 Y257H (Candida albicans, UniProt P10613, Y257H)
T18 construct: made in house; host or cells: E. coli DH5α (pCWori+)
Procedure: as §1

CaCYP51 G450E = target: T19, CaCYP51 G450E (Candida albicans, UniProt P10613, G450E)
T19 construct: made in house; host or cells: E. coli DH5α (pCWori+)
Procedure: as §1

CaCYP51 D278N = target: T20, CaCYP51 D278N (Candida albicans, UniProt P10613, D278N)
T20 construct: made in house; host or cells: E. coli DH5α (pCWori+)
T20 sequence (P10613 whole entry, looked up, stated change not applied): as above
Procedure: as §1

CaCYP51 Q474K = target: T21, CaCYP51 Q474K (Candida albicans, UniProt P10613, Q474K)
T21 construct: made in house; host or cells: E. coli DH5α (pCWori+)
Procedure: as §1

CaCYP51 V456I = target: T22, CaCYP51 V456I (Candida albicans, UniProt P10613, V456I)
T22 construct: made in house; host or cells: E. coli DH5α (pCWori+)
T22 sequence (P10613 whole entry, looked up, stated change not applied): as above
Procedure: as §1

CaCYP51 V488I = target: T23, CaCYP51 V488I (Candida albicans, UniProt P10613, V488I)
T23 construct: made in house; host or cells: E. coli DH5α (pCWori+)
T23 sequence (P10613 whole entry, looked up, stated change not applied): as above
Procedure: as §1

CaCYP51 G307S+G450E = target: T24, CaCYP51 G307S+G450E (Candida albicans, UniProt P10613, G307S/G450E)
T24 construct: made in house; host or cells: E. coli DH5α (pCWori+)
T24 sequence (P10613 whole entry, looked up, stated change not applied): as above
Procedure: as §1

CaCYP51 I471T = target: T25, CaCYP51 I471T (Candida albicans, UniProt P10613, I471T)
T25 construct: made in house; host or cells: E. coli DH5α (pCWori+)
Procedure: as §1

CaCYP51 G307S = target: T26, CaCYP51 G307S (Candida albicans, UniProt P10613, G307S)
T26 construct: made in house; host or cells: E. coli DH5α (pCWori+)
Procedure: as §1

CaCYP51 Y132F+K143R = target: T27, CaCYP51 Y132F+K143R (Candida albicans, UniProt P10613, K143R/Y132F)
T27 construct: made in house; host or cells: E. coli DH5α (pCWori+)
Procedure: as §1

CaCYP51 Y132F+F145L = target: T28, CaCYP51 Y132F+F145L (Candida albicans, UniProt P10613, F145L/Y132F)
T28 construct: made in house; host or cells: E. coli DH5α (pCWori+)
Procedure: as §1

[1] = 0.25 h, 4 μM triazole, % of activity without triazole, read-out: Residual CYP51 activity (%) ± SD
[2] = 0.25 h, read-out: Residual CYP51 activity (%) ± SD

OC(Cn1cncn1)(Cn1cncn1)c1ccc(F)cc1F [Fluconazole, fluconazole]
remaining activity at 4 µM (CaCYP51 Y132F; [1]): 7.05 ± 0.27%
IC50 (CaCYP51 Y132F; mean ± SD, duplicate): 606 ± 66 nM
remaining activity at 4 µM (CaCYP51 S279F; [1]): 18 ± 1.67%
IC50 (CaCYP51 S279F; mean ± SD, duplicate): 1050 ± 325 nM
remaining activity at 4 µM (CaCYP51 G448E; [1]): 10.5 ± 0.2%
IC50 (CaCYP51 G448E; mean ± SD, duplicate): 796 ± 87 nM
fold increase in IC50 over wild-type enzyme (CaCYP51 D278N+G464S): 3 fold and 3.2 fold
remaining activity at 4 µM (CaCYP51 D278N+G464S; [1]): 18.26 ± 0.08%
IC50 (CaCYP51 D278N+G464S; mean ± SD, duplicate): 1240 ± 64 nM
remaining activity at 4 µM (CaCYP51 V437I; [1]): 0.22 ± 0.06%
IC50 (CaCYP51 V437I; mean ± SD, duplicate): 281 ± 4 nM
remaining activity at 4 µM (CaCYP51 Y447H; [1]): 4.34 ± 0.51%
IC50 (CaCYP51 Y447H; mean ± SD, duplicate): 483 ± 18 nM
remaining activity at 4 µM (CaCYP51 F449Y; [1]): 0.76 ± 0.08%
IC50 (CaCYP51 F449Y; mean ± SD, duplicate): 245 ± 28 nM
remaining activity at 4 µM (CaCYP51 S405F; [1]): 11.6 ± 1.41%
IC50 (CaCYP51 S405F; mean ± SD, duplicate): 820 ± 42 nM
IC50 (CaCYP51 Y118A): 194 ± 10 nM
remaining activity at 4 µM (CaCYP51 P230L; [1]): 0.05 ± 0.03%
IC50 (CaCYP51 P230L; mean ± SD, duplicate): 334 ± 86 nM
remaining activity at 4 µM (CaCYP51 F145L; [1]): 6.71 ± 0.15%
IC50 (CaCYP51 F145L; mean ± SD, duplicate): 450 ± 83 nM
remaining activity at 4 µM (CaCYP51 G464S; [1]): 3.05 ± 0.17%
IC50 (CaCYP51 G464S; mean ± SD, duplicate): 455 ± 47 nM
remaining activity at 4 µM (CaCYP51 Wild type; [2]): 0.11 ± 0.09%
IC50 (CaCYP51 Wild type; IC50): 384 ± 19 nM
fold increase in IC50 over wild-type enzyme (CaCYP51 Y132H+K143R): 22 fold and 22.1 fold
remaining activity at 4 µM (CaCYP51 Y132H+K143R; [1]): 68.8 ± 5.68%
IC50 (CaCYP51 Y132H+K143R; mean ± SD, duplicate): 8470 ± 1270 nM
remaining activity at 4 µM (CaCYP51 F126V; [1]): 0.09 ± 0.06%
IC50 (CaCYP51 F126V; mean ± SD, duplicate): 278 ± 27 nM
remaining activity at 4 µM (CaCYP51 R467K; [1]): 3.34 ± 0.61%
IC50 (CaCYP51 R467K; mean ± SD, duplicate): 476 ± 80 nM
remaining activity at 4 µM (CaCYP51 Y132H; [1]): 0.86 ± 0.07%
IC50 (CaCYP51 Y132H; mean ± SD, duplicate): 220 ± 13 nM
remaining activity at 4 µM (CaCYP51 Y257H; [1]): 3.96 ± 0.18%
IC50 (CaCYP51 Y257H; mean ± SD, duplicate): 512 ± 47 nM
remaining activity at 4 µM (CaCYP51 G450E; [1]): 18.9 ± 0.94%
IC50 (CaCYP51 G450E; mean ± SD, duplicate): 1080 ± 247 nM
remaining activity at 4 µM (CaCYP51 D278N; [1]): 7.59 ± 0.58%
IC50 (CaCYP51 D278N; mean ± SD, duplicate): 838 ± 27 nM
remaining activity at 4 µM (CaCYP51 Q474K; [1]): 0.71 ± 0.08%
IC50 (CaCYP51 Q474K; mean ± SD, duplicate): 358 ± 8 nM
remaining activity at 4 µM (CaCYP51 V456I; [1]): 3.68 ± 0.95%
IC50 (CaCYP51 V456I; mean ± SD, duplicate): 483 ± 22 nM
remaining activity at 4 µM (CaCYP51 V488I; [1]): 1.06 ± 0.04%
IC50 (CaCYP51 V488I; mean ± SD, duplicate): 520 ± 57 nM
fold increase in IC50 over wild-type enzyme (CaCYP51 G307S+G450E): 13 fold
remaining activity at 4 µM (CaCYP51 G307S+G450E; [1]): 56.8 ± 2.3%
IC50 (CaCYP51 G307S+G450E; mean ± SD, duplicate): 4980 ± 54 nM
remaining activity at 4 µM (CaCYP51 I471T; [1]): 4.35 ± 0.33%
IC50 (CaCYP51 I471T; mean ± SD, duplicate): 600 ± 17 nM
remaining activity at 4 µM (CaCYP51 G307S; [1]): 0.95 ± 0.17%
IC50 (CaCYP51 G307S; mean ± SD, duplicate): 526 ± 211 nM
IC50 (CaCYP51 Y132F+K143R): 5860 ± 524 nM
remaining activity at 4 µM (CaCYP51 Y132F+K143R; [2]): 62 ± 1.21%
IC50 (CaCYP51 Y132F+F145L): 3890 ± 77 nM
remaining activity at 4 µM (CaCYP51 Y132F+F145L; [2]): 49.1 ± 1.76%

Reference: paper PMC6496074, “The Evolution of Azole Resistance in Candida albicans Sterol 14α-Demethylase (CYP51) through Incremental Amino Acid Substitutions” (Antimicrobial Agents and Chemotherapy, 2019)
